# Source: patent publication US12459951B2, “Compounds that interact with RAS superfamily proteins for treatment of cancers, inflammatory diseases, rasopathies, and fibrotic disease” (SHY Therapeutics, LLC, priority 2022, dated 2025)
# Assays:
# Akt phosphorylation = experiment: Akt Phosphorylation Assay (western blot), Panc-1; format: cell-based, human; conditions: at 10 μM, * = activation
# In short: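 Panc-1 (KRas G12D) cells were treated with compound at 10 μM final (0.3% DMSO) for 6 h at 37 °C, or with serial dilutions for IC50. Cells were either serum-starved overnight in 0.5% FBS and then stimulated with 1.5 ng/ml EGF for 15 min, or kept in 10% FBS without stimulation. Akt Ser473 phosphorylation in lysates was read by western blot.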
# Rac-1 = target: T1, Rac-1 (Homo sapiens, UniProt P63000); experiment: Ras GTP Binding Domain Inhibition Assay (Ras Superfamily Assay); conditions: read-out: Rac-1: % inh.
# T1 construct: made in house
# In short: (§1)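 His-tagged GTPases immobilised on nickel-coated plates, pre-incubated with compound (20 μM single point, or serial dilution for IC50) 3 h at room temperature, with or without 10-30 μg/mL Sos (residues 556-1049) in the final hour. Bound Cy3- or Cy5-GTP (100 nM, 45 min) measured by fluorescence after washing.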
# KRas wild type = experiment: as above; conditions: at 20 μM; for KRas wild type + SOS: % inh.: with SOS; for KRas wild type: % inh.: without SOS
# In short: as §1
# KRas G12D mutant = experiment: as above; conditions: at 20 μM; for KRas G12D mutant + SOS: % inh.: with SOS; for KRas G12D mutant: % inh.: without SOS
# In short: as §1
Structure (SMILES),inhibition at 20 µM (Rac-1) [%],KRas wild type + SOS: % inh. (KRas wild type),KRas wild type: % inh. (KRas wild type),KRas G12D mutant + SOS: % inh. (KRas G12D mutant),KRas G12D mutant: % inh. (KRas G12D mutant),% inh of Akt phosphorylation in Panc-1 (Akt phosphorylation)
"Cc1[nH]nc(Nc2nc(-c3nccn3C)nn3cc(-c4ccn(C)n4)c(C)c23)c1C [Compound 267, N-(4,5-Dimethyl-1H-pyrazol-3-yl)-5-methyl-2-(1-methyl-1H-imidazol-2-yl)-6-(1-methyl-1H-pyrazol-3-yl)pyrrolo[2,1-f][1,2,4]triazin-4-amine]",76 to 100,D (D = 76-100% inhibition),D (D = 76-100% inhibition),D (D = 76-100% inhibition),D (D = 76-100% inhibition),D* (85-100% activation)
"COc1cc(Nc2nc(-c3nccn3C)nn3cc(-c4ccn(C)n4)c(C)c23)n[nH]1 [Compound 252, N-(5-Methoxy-1H-pyrazol-3-yl)-5-methyl-2-(1-methyl-1H-imidazol-2-yl)-6-(1-methyl-1H-pyrazol-3-yl)pyrrolo[2,1-f][1,2,4]triazin-4-amine]",76 to 100,D (D = 76-100% inhibition),C (C = 50-75% inhibition),D (D = 76-100% inhibition),D (D = 76-100% inhibition),D* (85-100% activation)
"Cc1c(-c2ccn(C)n2)cn2nc(-c3nccn3C)nc(Nc3cc(-n4ccnc4C)ccn3)c12 [Compound 246, 5-Methyl-N-(4-(2-methyl-1H-imidazol-1-yl)pyridin-2-yl)-2-(1-methyl-1H-imidazol-2-yl)-6-(1-methyl-1H-pyrazol-3-yl)pyrrolo[2,1-f][1,2,4]triazin-4-amine]",76 to 100,D (D = 76-100% inhibition),D (D = 76-100% inhibition),D (D = 76-100% inhibition),D (D = 76-100% inhibition),D* (85-100% activation)
"Cc1c(-c2ccn(C)n2)cn2nc(-c3nccn3C)nc(Nc3cc(-c4ccccn4)[nH]n3)c12 [Compound 265, 5-Methyl-2-(1-methyl-1H-imidazol-2-yl)-6-(1-methyl-1H-pyrazol-3-yl)-N-(5-(pyridin-2-yl)-1H-pyrazol-3-yl)pyrrolo[2,1-f][1,2,4]triazin-4-amine]",76 to 100,D (D = 76-100% inhibition),,D (D = 76-100% inhibition),C (C = 50-75% inhibition),D* (85-100% activation)
"Cc1c(-c2ccn(C)n2)cn2nc(-c3nccn3C)nc(Nc3cc(OC(F)F)n(C)n3)c12 [Compound 254, N-(5-(Difluoromethoxy)-1-methyl-1H-pyrazol-3-yl)-5-methyl-2-(1-methyl-1H-imidazol-2-yl)-6-(1-methyl-1H-pyrazol-3-yl)pyrrolo[2,1-f][1,2,4]triazin-4-amine]",76 to 100,D (D = 76-100% inhibition),D (D = 76-100% inhibition),D (D = 76-100% inhibition),D (D = 76-100% inhibition),D* (85-100% activation)

# Further lines, with some results ahead:
inhibition at 20 µM (Rac-1) [%],KRas wild type + SOS: % inh. (KRas wild type),KRas wild type: % inh. (KRas wild type),KRas G12D mutant + SOS: % inh. (KRas G12D mutant),KRas G12D mutant: % inh. (KRas G12D mutant),Structure (SMILES),% inh of Akt phosphorylation in Panc-1 (Akt phosphorylation)
76 to 100,D (D = 76-100% inhibition),D (D = 76-100% inhibition),D (D = 76-100% inhibition),D (D = 76-100% inhibition),"Cc1c(-c2ccn(C)n2)cn2nc(-c3nccn3C)nc(Nc3ccc(N4CCOCC4)cn3)c12 [Compound 247, 5-Methyl-2-(1-methyl-1H-imidazol-2-yl)-6-(1-methyl-1H-pyrazol-3-yl)-N-(5-morpholinopyridin-2-yl)pyrrolo[2,1-f][1,2,4]triazin-4-amine]",D* (85-100% activation)
76 to 100,D (D = 76-100% inhibition),C (C = 50-75% inhibition),D (D = 76-100% inhibition),C (C = 50-75% inhibition),"Cc1c(-c2ccn(C)n2)cn2nc(-c3nccn3C)nc(Nc3cc(-c4cccnc4)[nH]n3)c12 [Compound 264, 5-Methyl-2-(1-methyl-1H-imidazol-2-yl)-6-(1-methyl-1H-pyrazol-3-yl)-N-(5-(pyridin-3-yl)-1H-pyrazol-3-yl)pyrrolo[2,1-f][1,2,4]triazin-4-amine]",D* (85-100% activation)
76 to 100,D (D = 76-100% inhibition),C (C = 50-75% inhibition),D (D = 76-100% inhibition),D (D = 76-100% inhibition),"Cc1c(-c2ccn(C)n2)cn2nc(-c3nccn3C)nc(Nc3cc(-c4ccccc4)[nH]n3)c12 [Compound 263, 5-Methyl-2-(1-methyl-1H-imidazol-2-yl)-6-(1-methyl-1H-pyrazol-3-yl)-N-(5-phenyl-1H-pyrazol-3-yl)pyrrolo[2,1-f][1,2,4]triazin-4-amine]",D* (85-100% activation)
50 to 75,C (C = 50-75% inhibition),B (B = 26-49% inhibition),D (D = 76-100% inhibition),D (D = 76-100% inhibition),"Cc1c(-c2ccn(C)n2)cn2nc(-c3nccn3C)nc(Oc3cc(N)[nH]n3)c12 [Compound 262, 3-((5-Methyl-2-(1-methyl-1H-imidazol-2-yl)-6-(1-methyl-1H-pyrazol-3-yl)pyrrolo[2,1-f][1,2,4]triazin-4-yl)oxy)-1H-pyrazol-5-amine]",B (26-49% inhibition)
76 to 100,D (D = 76-100% inhibition),C (C = 50-75% inhibition),D (D = 76-100% inhibition),D (D = 76-100% inhibition),"COc1cc(Nc2nc(-c3nccn3C)nn3cc(-c4ccn(C)n4)c(C)c23)ncc1-n1cnc(C)c1 [Compound 244, N-(4-Methoxy-5-(4-methyl-1H-imidazol-1-yl)pyridin-2-yl)-5-methyl-2-(1-methyl-1H-imidazol-2-yl)-6-(1-methyl-1H-pyrazol-3-yl)pyrrolo[2,1-f][1,2,4]triazin-4-amine]",D* (85-100% activation)
0,0 (0 = 0% inhibition),0 (0 = 0% inhibition),A (A = 1-25% inhibition),B (B = 26-49% inhibition),"COc1cccc(-c2cn3nc(-c4nccn4C)nc(N[C@H]4C[C@H](OC)C4)c3c2-c2ccccn2)c1C [Compound 274, 6-(3-Methoxy-2-methylphenyl)-N-((1r,3r)-3-methoxycyclobutyl)-2-(1-methyl-1H-imidazol-2-yl)-5-(pyridin-2-yl)pyrrolo[2,1-f][1,2,4]triazin-4-amine]",D (85-100% inhibition)
